Some test systems named below: HCC-2998 colon; K-562 leukemia; SF-539 CNS; SR leukemia; HOP-92 NSCLC; NCI-H226 lung; SNB-19 CNS; MALME-3M melanoma; COLO 205 colon; HT29 colon; SK-MEL-5 melanoma; CAKI-1 renal; A498 renal; PC-3 prostate; MDA-MB-231 breast.
What all share (test): growth of human tumour cells (NCI), 48 h

Structures are written as SMILES.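 Briefly, cells in 96-well plates were exposed to five compound concentrations for 48 h, and endpoints were estimated by linear interpolation. GI50 = concentration required for 50% inhibition of growth. TGI marks complete inhibition of growth.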

As for `C=CCC(N(C)C(=O)[C@H](Cc1ccccc1)NC(=O)OCc1ccccc1)P(=O)(Oc1ccccc1)Oc1ccccc1` (stereo not given in full), the TGI in the test on HCC-2998 colon, in the test with K-562 leukemia, in the test with SF-539 CNS, in the test with SR leukemia, in the test with HOP-92 NSCLC and in the test on NCI-H226 lung was greater than 100 µM each time. Also, the TGI with SNB-19 CNS, in the test with MALME-3M melanoma, in the test on COLO 205 colon and in the test on HT29 colon was greater than 100 µM in each case.

Regarding `COC(=O)C(C#CCCCCC#CC(NC(=O)OCc1ccccc1)(C(=O)OC)C(F)(F)F)(NC(=O)OCc1ccccc1)C(F)(F)F` (stereo not given), the TGI in the test on SK-MEL-5 melanoma, in the test on CAKI-1 renal, in the test on HCC-2998 colon, in the test on K-562 leukemia, with SF-539 CNS and with A498 renal was greater than 100 µM in each case. The TGI in the test with HOP-92 NSCLC, with NCI-H226 lung, in the test on SNB-19 CNS, with MALME-3M melanoma, with COLO 205 colon and in the test on HT29 colon was greater than 100 µM throughout.

In the case of `CC1CN(c2ccc(Cl)cc2)CC(C)OC(=O)O1` (stereo not given), the TGI with SK-MEL-5 melanoma, in the test with CAKI-1 renal, in the test with HCC-2998 colon, in the test with K-562 leukemia, with SF-539 CNS and in the test on SR leukemia was greater than 100 µM in each case. In addition, the TGI in the test with HOP-92 NSCLC, with NCI-H226 lung, in the test with SNB-19 CNS, with MALME-3M melanoma, in the test with COLO 205 colon and with HT29 colon was greater than 100 µM throughout.

`C=CCNC(=O)N(CCCC(NC(C)=O)C(=O)NCc1ccccc1)Cc1ccccc1` (stereo not given): the TGI in the test on SK-MEL-5 melanoma, with CAKI-1 renal, in the test on K-562 leukemia, in the test on SF-539 CNS, in the test on A498 renal and in the test on HOP-92 NSCLC was greater than 100 µM throughout. Besides, the TGI in the test with NCI-H226 lung, in the test with SNB-19 CNS, in the test with MALME-3M melanoma, in the test on COLO 205 colon and with HT29 colon was greater than 100 µM each time.

Take `COc1cccc([C@H]2C/C(=N\NC(=O)C(=O)N[C@@H](C)c3ccccc3)c3ccccc3N2)c1`: the TGI was 0.868 µM in the test with SK-MEL-5 melanoma; 54.1 µM in the test with CAKI-1 renal; 0.0495 µM in the test on HCC-2998 colon; 0.0554 µM in the test on K-562 leukemia; 21.3 µM in the test on SF-539 CNS; greater than 100 µM in the test with A498 renal. Further, the TGI in the test on HOP-92 NSCLC is greater than 100 µM; in the test with PC-3 prostate it was greater than 100 µM; with NCI-H226 lung, 3.03 µM; in the test on SNB-19 CNS, greater than 100 µM; in the test on MDA-MB-231 breast, 41.4 µM; with COLO 205 colon, 13.1 µM. The values for the GI50 in the test on SF-539 CNS, in the test on HOP-92 NSCLC and in the test with SNB-19 CNS were 0.0208 µM, 0.422 µM and 0.0259 µM, respectively.

In the case of `Cc1ccc(N(C(=O)Nc2ccccc2)C2=NCC(C)S2)cc1C` (stereo not given), the TGI is 30.7 µM in the test with SK-MEL-5 melanoma; greater than 10 µM in the test with CAKI-1 renal; greater than 10 µM with HCC-2998 colon; greater than 100 µM in the test with K-562 leukemia; 48.5 µM in the test on SF-539 CNS; 47.9 µM in the test on A498 renal. In addition, the TGI is 86 µM in the test on SR leukemia; 43.3 µM with HOP-92 NSCLC; greater than 100 µM in the test with PC-3 prostate; greater than 100 µM with SNB-19 CNS; 40.7 µM with MALME-3M melanoma; 45 µM in the test with MDA-MB-231 breast. Also, the TGI with COLO 205 colon stood at 41.6 µM; in the test with HT29 colon, 41.9 µM.

Consider `COC(=O)/C(=N\NC(=O)C[N+](C)(C)C)C(C(=O)OC)C(=O)C(=O)Nc1ccccc1C(N)=O` (stereo not given), for which the TGI in the test on SK-MEL-5 melanoma, in the test with CAKI-1 renal, in the test with HCC-2998 colon, in the test with K-562 leukemia, in the test on SF-539 CNS and in the test on A498 renal was greater than 100 µM each time. Besides, the TGI with SR leukemia, in the test with NCI-H226 lung, with SNB-19 CNS, in the test on MALME-3M melanoma, in the test on COLO 205 colon and in the test with HT29 colon was greater than 100 µM throughout.

For `CCOP(=O)(OCC)C(Nc1ccc(Br)cc1)c1cccc([N+](=O)[O-])c1` (stereo not given), the TGI in the test with SK-MEL-5 melanoma was 28.3 µM; in the test on CAKI-1 renal, 49.7 µM; in the test with HCC-2998 colon it was 32.4 µM; in the test with K-562 leukemia, 38.6 µM; with SF-539 CNS it was 45.6 µM; in the test with A498 renal, 31.1 µM. In addition, the TGI in the test with SR leukemia is 56.2 µM; with HOP-92 NSCLC it was 42.2 µM; with NCI-H226 lung, 38.3 µM; in the test on SNB-19 CNS it was 47.6 µM; in the test with MALME-3M melanoma, 37.9 µM; in the test on MDA-MB-231 breast, 43.2 µM. Further, the TGI in the test with COLO 205 colon was 26 µM; in the test on HT29 colon, 34.3 µM.

Turning to `Clc1ccc(N=Nc2nc3ccccc3nc2N=Nc2ccc(Cl)cc2Cl)c(Cl)c1`, the TGI in the test with HCC-2998 colon, with K-562 leukemia, with SF-539 CNS, with A498 renal, with SR leukemia and in the test on HOP-92 NSCLC was greater than 100 µM in each case. Also, the TGI in the test on NCI-H226 lung, in the test with SNB-19 CNS, in the test on MALME-3M melanoma, in the test on COLO 205 colon and with HT29 colon was greater than 100 µM each time.

Regarding `COc1ccc(N=Cc2ccc(N(CCC#N)S(=O)(=O)c3ccccc3)cc2)cc1`, the TGI in the test on SK-MEL-5 melanoma, in the test on CAKI-1 renal, with K-562 leukemia, with SF-539 CNS, in the test on A498 renal and with SR leukemia was greater than 100 µM throughout. In addition, the TGI in the test on HOP-92 NSCLC, in the test on NCI-H226 lung, in the test on SNB-19 CNS, in the test on MALME-3M melanoma, with COLO 205 colon and in the test on HT29 colon was greater than 100 µM each time.

On to `O=C1c2ccccc2OP(=O)(OCC(F)(F)F)OC1(C(F)(F)F)C(F)(F)F` (stereo not given), for which the TGI with SK-MEL-5 melanoma, in the test with CAKI-1 renal, with HCC-2998 colon, in the test on K-562 leukemia, with SF-539 CNS and in the test with A498 renal was greater than 100 µM each time. For the same compound, the TGI in the test on SR leukemia, with HOP-92 NSCLC, in the test with NCI-H226 lung, with SNB-19 CNS, in the test with COLO 205 colon and in the test with HT29 colon was greater than 100 µM in each case.

(Values after PubChem BioAssay (NCI).)
